How the values were obtained:
naïve CD4+ T cells [1] = assay: In vitro TH1 differentiation; type: cell-based, mouse; conditions: data not shown
Method: CD4^+ T cells were obtained from spleens and lymph nodes by positive selection and magnetic separation (Miltenyi Biotech), followed by purification of naïve CD4^+ T cell population (CD4^+CD25^−CD62L^hiCD44^lo) sorted with FACS Aria. Naïve CD4^+ T cells were stimulated with plate-bound anti-CD3 (3 μg/ml; BD Pharmingen) and anti-CD28 (1 μg/ml; BD Pharmingen) in presence of different combinations of neutralizing antibodies and cytokines for 3˜4 days: for neutral conditions, no addition of any cytokine or neutralizing antibody; for TH1 conditions, IL-12 (10 ng/ml), and anti-IL-4 (10 μg/ml, BD Pharmingen); for TH17 conditions, hTGF-β (3 ng/ml), IL-6 (20 ng/ml), anti-IFN-γ (10 μg/ml, eBioscience), and anti-IL-4 (10 μg/ml); for an alternative TH17 conditions, IL-6 (20 ng/ml), IL-23 (10 ng/ml), IL-1β (10 ng/ml), anti-IFN-γ (10 μg/ml), and anti-IL-4 (10 μg/ml). For GM-CSF-expressing cell differentiation, naïve CD4^+ T cells were stimulated with plate-bound anti-CD3 (2 μg/ml) and soluble anti-D28 (1 μg/ml) with the addition of IL-7 and/or anti-IFN-γ (10 μg/ml) as indicated. All cytokines were obtained from R&D Systems. […] Cells were acquired on the LSR II (BD Biosciences) and analyzed with FlowJo software (Tree Star). […]

naïve CD4+ T cells [2] = assay: In vitro TH-GM (GM-CSF-expressing TH) differentiation from naïve CD4+ T cells; type: cell-based, mouse; conditions: TH-GM cell-favoring condition, inhibitor 3 days
Method: Naïve CD4^+ T cells were primed with plate-bound anti-CD3 and soluble anti-CD28 in the presence of a combination of various cytokines and neutralizing antibodies as indicated. GM-CSF, IL-17 and IFN-γ expression was analyzed by intracellular staining (FIG. 13A) or RT-PCR (FIG. 13B)
GM-CSF and IFN-γ expression in naive CD4^+ T cells activated for 72 h with anti-CD3 alone or plus anti-CD28 (FIG. 14A). In FIG. 14B, sorted naïve CD4^+ T cells were stimulated with anti-CD3 and anti-CD28 in the presence of neutralizing antibodies against IL-12 and IFN-γ without or with the addition of IL-6. The frequencies of GM-CSF^+ and IL-17^+ cells were measured by intracellular staining (FIG. 14B). In FIG. 14C, naïve CD4^+ T cells from Stat3^+/+ and Stat3^−/− mice were polarized under conditions as indicated for 72 h. The frequencies of GM-CSF^+ and IL-17^+ cells were analyzed. In FIG. 14D, naïve CD4^+ T cells were activated with anti-CD3 and anti-CD28 in the presence of IL-2 or anti-IL-2. The frequencies of GM-CSF^+, IL-17^+ and IFN-γ^+ cells were analyzed.
Naïve CD4^+ T cells were primed with plate-bound anti-CD3 and soluble anti-CD28 in the presence of various concentration of IL-7 as indicated. GM-CSF and IFN-γ expression was analyzed by intracellular staining (FIG. 15A) or ELISA (FIG. 15B). In FIGS. 15C and 15D, Stat5^+/+ and Stat5^−/− naïve CD4^+ T cells were activated with anti-CD3 and anti-CD28 in the presence IL-7 for 3 days. GM-CSF, IL-17 and IFN-γ expression was analyzed by intracellular cytokine staining (FIG. 15C). GM-CSF secretion was measured by ELISA (FIG. 15D).

STAT5 [3] = conditions: Muller et al., 2008; cited from earlier work
EAE mice = assay: EAE (MOG35-55/CFA) model; type: in vivo
Method: (FIG. 23A) Clinical EAE scores of wild-type control mice (n=5) or administrated with STAT5 inhibitor (Calbiochem). Arrow indicates the treatment points. (FIG. 23B) Histology of spinal cords at day 18 of EAE mice receiving different treatments. (FIG. 23C) Intracellular staining and flow cytometry of CNS-infiltrating CD4^+ T cells at peak of disease. (FIG. 23D) Whole CNS was harvest for RNA extraction. GM-CSF mRNA expression was analyzed by RT-PCR. Data represent two independent experiments. *p<0.05.
EAE induction procedures were modified from previous report^3. For active EAE induction, mice were immunized in two sites on the hind flanks with 300 μg MOG35-55 in 100 μl CFA containing 5 mg/ml heat-killed M. tuberculosis strain H37Ra (Difco) at day 0 and day 7. Pertussis toxin (List Bio Lab) was administrated intraperitoneally at the dosage of 500 ng per mouse at day 1 and day 8. For single MOG35-55/CFA immunization, the similar procedure was performed at day 0 and day 1 only. In an alternative active EAE induction, LPS (600 μg/ml in IFA, O111:B4 from Sigma) was used as adjuvant. […] Clinical symptoms were scored as follows: 0, no clinical sign; 1, loss of tail tone; 2, wobbly gait; 3, hind limb paralysis; 4, hind and fore limb paralysis; 5, death. […] For analysis of CNS-infiltrating cells, both spinal cord and brain were collected and minced from perfused mice, and mononuclear cells were isolated by gradient centrifuge with Percoll (GE Healthcare).
To explore the therapeutic effect of targeting STAT5 activation in EAE disease, the commercial STAT5 inhibitor was administered to wild-type mice intraperitoneally every other day after disease onset. Development of paralysis was assessed by daily assignment of clinical scores.

naïve CD4+ T cells [4] = assay: In vitro TH17 differentiation; type: cell-based, mouse; conditions: data not shown
Method: CD4^+ T cells were obtained from spleens and lymph nodes by positive selection and magnetic separation (Miltenyi Biotech), followed by purification of naïve CD4^+ T cell population (CD4^+CD25^−CD62L^hiCD44^lo) sorted with FACS Aria. Naïve CD4^+ T cells were stimulated with plate-bound anti-CD3 (3 μg/ml; BD Pharmingen) and anti-CD28 (1 μg/ml; BD Pharmingen) in presence of different combinations of neutralizing antibodies and cytokines for 3˜4 days: for neutral conditions, no addition of any cytokine or neutralizing antibody; for TH1 conditions, IL-12 (10 ng/ml), and anti-IL-4 (10 μg/ml, BD Pharmingen); for TH17 conditions, hTGF-β (3 ng/ml), IL-6 (20 ng/ml), anti-IFN-γ (10 μg/ml, eBioscience), and anti-IL-4 (10 μg/ml); for an alternative TH17 conditions, IL-6 (20 ng/ml), IL-23 (10 ng/ml), IL-1β (10 ng/ml), anti-IFN-γ (10 μg/ml), and anti-IL-4 (10 μg/ml). […] Cells were acquired on the LSR II (BD Biosciences) and analyzed with FlowJo software (Tree Star).
Stat5 deletion (Cd4-cre; Stat5^f/−) mice was reported to develop peripheral lymphopenia, with a reduction of both CD4^+ and CD8^+ T cells (Yao et al., 2006). […] Furthermore, increased frequencies of IL-17^+ and IFN-γ^+ cells were detected among CD4^+ T cells in spleens of Stat5^−/− mice (FIG. 4C), which further support the idea that the resistance to EAE in Stat5^−/− mice is likely independent of TH1 and TH17 generation. […]

STAT1 = target: T1, STAT1 (Mus musculus, UniProt P42225); assay: IFN-γ-induced STAT1 activation (Tyr701 phosphorylation) in CD4+ T cells, immunoblotting; type: cell-based; conditions: 50 or 100 μM; IFN-γ 30 min
T1 construct: endogenous in cells; host or cells: primary mouse CD4+ T cells (spleen and lymph nodes)
T1 sequence (P42225 1-749): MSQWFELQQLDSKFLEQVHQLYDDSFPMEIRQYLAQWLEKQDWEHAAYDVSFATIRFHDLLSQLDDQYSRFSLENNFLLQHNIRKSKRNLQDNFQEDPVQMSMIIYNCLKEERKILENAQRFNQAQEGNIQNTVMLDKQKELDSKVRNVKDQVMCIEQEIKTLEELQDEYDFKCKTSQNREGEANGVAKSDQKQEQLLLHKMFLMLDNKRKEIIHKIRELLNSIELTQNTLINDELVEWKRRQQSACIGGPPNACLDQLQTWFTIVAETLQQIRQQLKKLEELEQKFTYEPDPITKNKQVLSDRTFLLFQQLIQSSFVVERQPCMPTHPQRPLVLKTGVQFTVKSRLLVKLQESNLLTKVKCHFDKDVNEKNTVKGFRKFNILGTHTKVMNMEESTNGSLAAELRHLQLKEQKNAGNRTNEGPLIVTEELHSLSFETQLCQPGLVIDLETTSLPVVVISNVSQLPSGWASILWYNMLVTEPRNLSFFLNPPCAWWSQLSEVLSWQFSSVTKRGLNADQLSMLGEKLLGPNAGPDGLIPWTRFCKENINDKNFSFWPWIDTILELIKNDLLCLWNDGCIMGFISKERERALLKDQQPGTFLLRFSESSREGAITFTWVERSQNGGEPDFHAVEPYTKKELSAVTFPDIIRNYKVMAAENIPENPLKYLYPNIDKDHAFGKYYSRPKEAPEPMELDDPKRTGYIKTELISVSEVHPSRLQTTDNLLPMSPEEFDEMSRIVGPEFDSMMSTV
Method: (§1) FIGS. […] depict inhibition of STAT5 activation suppresses TH-GM cell differentiation in vitro. CD4^+ T cells were pre-incubated with STAT5 inhibitor (Calbiochem) (FIG. 22A) or JAK3 inhibitor (FIG. 22B) at indicated concentrations or vehicle (−) for 1 h before stimulation with IL-7 for 30 min. Activation (Tyr694 phosphorylation) of STAT5 was determined by immunoblotting. CD4^+ T cells were pre-incubated with STAT5 inhibitor at indicated concentrations or vehicle (−) for 1 h before stimulation with IL-6 for 30 min. Activation (Tyr705 phosphorylation) of STAT3 was determined by immunoblotting (FIG. 22C). In FIG. 22D, CD4^+ T cells were pre-incubated with STAT5 inhibitor at indicated concentrations or vehicle (−) for 1 h before stimulation with IFN-γ for 30 min. Activation (Tyr701 phosphorylation) of STAT1 was determined by immunoblotting. In FIG. 22E, naïve CD4^+ T cells were isolated and activated under neutral condition or TH-GM cell-favoring condition with the addition of different concentrations of STAT5 inhibitor for 3 days. GM-CSF and IFN-γ expression was analyzed by intracellular cytokine staining and flow cytometry.
(§2) The effect of disrupting STAT5 activation by chemical inhibitor was examined to explore possible methods of treating autoimmune neuroinflammation. The phosphorylation on the key tyrosine residue in SH2 domain is crucial for STAT5 activation and function. […]

STAT5 [5] = assay: IL-7-induced STAT5 activation (Tyr694 phosphorylation) in CD4+ T cells, immunoblotting; type: cell-based, mouse; conditions: pre-incubated 1 h, IL-7 30 min
Method: as §1, §2

STAT3 = target: T2, STAT3 (Mus musculus, UniProt P42227); assay: IL-6-induced STAT3 activation (Tyr705 phosphorylation) in CD4+ T cells, immunoblotting; type: cell-based; conditions: 50 or 100 μM; IL-6 30 min
T2 construct: endogenous in cells; host or cells: primary mouse CD4+ T cells (spleen and lymph nodes)
T2 sequence (P42227 whole entry): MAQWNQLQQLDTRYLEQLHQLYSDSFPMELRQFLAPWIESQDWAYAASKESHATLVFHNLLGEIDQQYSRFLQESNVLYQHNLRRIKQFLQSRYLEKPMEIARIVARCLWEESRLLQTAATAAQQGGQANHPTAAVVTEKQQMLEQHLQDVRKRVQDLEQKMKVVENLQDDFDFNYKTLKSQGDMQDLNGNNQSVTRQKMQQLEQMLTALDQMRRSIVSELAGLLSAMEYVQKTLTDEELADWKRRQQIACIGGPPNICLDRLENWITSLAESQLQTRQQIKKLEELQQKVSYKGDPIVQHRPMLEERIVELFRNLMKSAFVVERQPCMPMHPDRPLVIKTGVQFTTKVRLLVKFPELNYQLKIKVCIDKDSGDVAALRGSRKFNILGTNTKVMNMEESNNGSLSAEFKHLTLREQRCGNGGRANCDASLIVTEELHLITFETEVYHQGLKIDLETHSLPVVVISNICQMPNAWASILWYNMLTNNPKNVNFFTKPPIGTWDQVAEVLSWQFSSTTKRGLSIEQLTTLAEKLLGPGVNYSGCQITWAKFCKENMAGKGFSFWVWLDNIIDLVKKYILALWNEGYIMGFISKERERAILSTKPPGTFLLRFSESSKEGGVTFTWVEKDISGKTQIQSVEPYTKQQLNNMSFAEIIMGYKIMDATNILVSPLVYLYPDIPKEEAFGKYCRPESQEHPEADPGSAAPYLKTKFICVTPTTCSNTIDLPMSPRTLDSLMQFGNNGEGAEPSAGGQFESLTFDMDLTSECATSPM
Method: as §1, §2

O=C(N/N=C/c1coc2ccccc2c1=O)c1cccnc1 [STAT5 inhibitor]
TH1 differentiation (naïve CD4+ T cells [1]): Reduced TH1 differentiation
TH-GM differentiation (naïve CD4+ T cells [2]): suppressed TH-GM differentiation in a dosage-dependent manner
disruption of tyrosine phosphorylation and DNA binding of STAT5 (STAT5 [3]): selectively disrupt tyrosine phosphorylation and DNA binding of STAT5
GM-CSF production in CNS-infiltrating CD4+ T cells (EAE mice; inhibitor-treated EAE mice, peak of disease): reduced GM-CSF production
EAE severity (clinical scores) (EAE mice; wild-type mice, intraperitoneally every other day after disease onset): ameliorated EAE severity
immune cell infiltration in the CNS (EAE mice; wild-type mice, intraperitoneally every other day after disease onset, day 18): reduced immune cell infiltration in the CNS
TH17 differentiation (naïve CD4+ T cells [4]): not suppressed
inhibitory effect on STAT1 activation (STAT1): minimal inhibitory effect
inhibitory effect on STAT5 activation upon IL-7 stimulation (STAT5 [5]; 50 μM): about 50%
inhibitory effect on STAT5 activation upon IL-7 stimulation (STAT5 [5]; FIG. 22A, 22B): low affinity and thus required a high concentration to fully block STAT5 activation
inhibitory effect on STAT3 activation (STAT3): minimal inhibitory effect

— patent US10690666B2, “Methods and compositions for modulating TH-GM cell function” (National University of Singapore, priority 2014, dated 2020)
